Results as given in patent publication US20050148991A1, “Device for using patient blood as diluent in administering pharmaceuticals” (priority 2002, published 2005).

Test: early study in humans receiving RSR13 via injection in a peripheral vein
Assay type: in vivo
Source text: Therefore, the use of RSR13 and its physiologically acceptable salts in the present methods is contemplated. The preparation and uses for 2-[4-[2-[(3,5-dimethylphenyl)amino]-2-oxoethyl]phenoxy]-2-methyl-propionic acid and its physiologically acceptable salts has been described previously in U.S. Pat. Nos. 5,049,695; 5,122,539; 5,290,803; 5,432,191; 5,525,630; 5,648,375; 5,661,182; 5,677,330; 5,705,521; 5,872,888; and 5,927,283, and pending U.S. patent application Ser. No. 10/082,130, filed Feb. 25, 2002.

Cc1cc(C)cc(NC(=O)Cc2ccc(OC(C)(C)C(=O)O)cc2)c1 [RSR13, 2-[4-[2-[(3,5-dimethylphenyl)amino]-2-oxoethyl]phenoxy]-2-methyl-propionic acid]
pain on injection: some recipients complained of pain near the site of injection and downstream
